From ChEMBL document CHEMBL1201862, “PubChem BioAssay data set” (2004)
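Briefly, cells in 96-well plates were exposed to five compound concentrations for 48 h, and endpoints were estimated by linear interpolation. Here, GI50 denotes the concentration required for 50% inhibition of growth.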 Calls of active or inactive are those of the source. Cut-off read from the data, not from the text of the source: active = GI50 up to about 1.1 µM and inactive = higher.

Key:
Assay in all cases: NCI tumour cell line growth inhibition, 48 h
786-0 = tested on: 786-0
A498 = tested on: A498
A549 = tested on: A549
ACHN = tested on: ACHN
CAKI-1 = tested on: CAKI-1
CCRF-CEM = tested on: CCRF-CEM
COLO 205 = tested on: COLO 205
DLD-1 = tested on: DLD-1
DMS-114 = tested on: DMS-114
DMS-273 = tested on: DMS-273
EKVX = tested on: EKVX
HCC 2998 = tested on: HCC 2998
HCT-116 = tested on: HCT-116
HCT-15 = tested on: HCT-15
HOP-62 = tested on: HOP-62
HOP-92 = tested on: HOP-92
HT-29 = tested on: HT-29
IGROV-1 = tested on: IGROV-1
K562 = tested on: K562
KM-20L2 = tested on: KM-20L2
KM12 = tested on: KM12
LOX IMVI = tested on: LOX IMVI
LXFL 529 = tested on: LXFL 529
M14 = tested on: M14
M19-MEL = tested on: M19-MEL
MOLT-4 = tested on: MOLT-4
Malme-3M = tested on: Malme-3M
NCI-H226 = tested on: NCI-H226
NCI-H23 = tested on: NCI-H23
NCI-H460 = tested on: NCI-H460
NCI-H522 = tested on: NCI-H522
OVCAR-3 = tested on: OVCAR-3
OVCAR-4 = tested on: OVCAR-4
OVCAR-5 = tested on: OVCAR-5
OVCAR-8 = tested on: OVCAR-8
RPMI-8226 = tested on: RPMI-8226
RXF 393 = tested on: RXF 393
RXF 631 = tested on: RXF 631
SF-268 = tested on: SF-268
SF-295 = tested on: SF-295
SF-539 = tested on: SF-539
SK-MEL-28 = tested on: SK-MEL-28
SK-MEL-2 = tested on: SK-MEL-2
SK-MEL-5 = tested on: SK-MEL-5
SK-OV-3 = tested on: SK-OV-3
SN12C = tested on: SN12C
SNB-19 = tested on: SNB-19
SNB-75 = tested on: SNB-75
SNB-78 = tested on: SNB-78
SW-620 = tested on: SW-620
TK-10 = tested on: TK-10
U-251 = tested on: U-251
UACC-257 = tested on: UACC-257
UACC-62 = tested on: UACC-62
UO-31 = tested on: UO-31
BT-549 = tested on: BT-549
HOP-18 = tested on: HOP-18
Hs-578T = tested on: Hs-578T
MCF7 = tested on: MCF7
MDA-MB-231 = tested on: MDA-MB-231
MDA-MB-435 = tested on: MDA-MB-435
MDA-N = tested on: MDA-N
NCI/ADR-RES = tested on: NCI/ADR-RES
PC-3 = tested on: PC-3
SR = tested on: SR
T47D = tested on: T47D
XF498 = tested on: XF498

CCCN(CCCC(NC(C)=O)C(=O)NCc1ccccc1)C(=O)NC (configuration not stated)
GI50 (786-0): > 100 µM (inactive)
GI50 (A498): > 100 µM (inactive)
GI50 (A549): > 100 µM (inactive)
GI50 (ACHN): > 100 µM (inactive)
GI50 (CAKI-1): > 100 µM (inactive)
GI50 (CCRF-CEM): > 100 µM (inactive)
GI50 (COLO 205): > 100 µM (inactive)
GI50 (DLD-1): > 100 µM (inactive)
GI50 (DMS-114): > 100 µM (inactive)
GI50 (DMS-273): > 100 µM (inactive)
GI50 (EKVX): > 100 µM (inactive)
GI50 (HCC 2998): > 100 µM (inactive)
GI50 (HCT-116): > 100 µM (inactive)
GI50 (HCT-15): > 100 µM
GI50 (HOP-62): > 100 µM (inactive)
GI50 (HOP-92): > 100 µM (inactive)
GI50 (HT-29): > 100 µM (inactive)
GI50 (IGROV-1): > 100 µM (inactive)
GI50 (K562): > 100 µM (inactive)
GI50 (KM-20L2): > 100 µM (inactive)
GI50 (KM12): > 100 µM (inactive)
GI50 (LOX IMVI): > 100 µM (inactive)
GI50 (LXFL 529): > 100 µM (inactive)
GI50 (M14): > 100 µM (inactive)
GI50 (M19-MEL): > 100 µM (inactive)
GI50 (MOLT-4): > 100 µM (inactive)
GI50 (Malme-3M): > 100 µM (inactive)
GI50 (NCI-H226): > 100 µM (inactive)
GI50 (NCI-H23): > 100 µM (inactive)
GI50 (NCI-H460): > 100 µM (inactive)
GI50 (NCI-H522): > 100 µM (inactive)
GI50 (OVCAR-3): > 100 µM (inactive)
GI50 (OVCAR-4): > 100 µM (inactive)
GI50 (OVCAR-5): > 100 µM (inactive)
GI50 (OVCAR-8): > 100 µM (inactive)
GI50 (RPMI-8226): > 100 µM (inactive)
GI50 (RXF 393): > 100 µM (inactive)
GI50 (RXF 631): > 100 µM (inactive)
GI50 (SF-268): > 100 µM (inactive)
GI50 (SF-295): > 100 µM (inactive)
GI50 (SF-539): > 100 µM (inactive)
GI50 (SK-MEL-28): > 100 µM (inactive)
GI50 (SK-MEL-2): > 100 µM (inactive)
GI50 (SK-MEL-5): > 100 µM (inactive)
GI50 (SK-OV-3): > 100 µM (inactive)
GI50 (SN12C): > 100 µM (inactive)
GI50 (SNB-19): > 100 µM (inactive)
GI50 (SNB-75): 13.7 µM (inactive)
GI50 (SNB-78): > 100 µM (inactive)
GI50 (SW-620): > 100 µM (inactive)
GI50 (TK-10): > 100 µM (inactive)
GI50 (U-251): > 100 µM (inactive)
GI50 (UACC-257): > 100 µM (inactive)
GI50 (UACC-62): > 100 µM (inactive)
GI50 (UO-31): > 100 µM (inactive)

CC(Oc1ccc(Oc2cnc3ccc(Cl)cc3n2)cc1)C(=O)O (configuration not stated)
GI50 (786-0): > 81.1 µM (inactive)
GI50 (A498): > 62.1 µM (inactive)
GI50 (A549): 81.1 µM (inactive)
GI50 (ACHN): 60 µM (inactive)
GI50 (BT-549): > 73.1 µM (inactive)
GI50 (CAKI-1): 64.1 µM (inactive)
GI50 (COLO 205): 55.7 µM (inactive)
GI50 (DLD-1): > 100 µM (inactive)
GI50 (DMS-114): > 100 µM (inactive)
GI50 (DMS-273): > 100 µM (inactive)
GI50 (EKVX): > 99.8 µM (inactive)
GI50 (HCC 2998): > 87.9 µM (inactive)
GI50 (HCT-116): 58.7 µM (inactive)
GI50 (HCT-15): > 74.1 µM
GI50 (HOP-18): > 100 µM (inactive)
GI50 (HOP-62): > 74.5 µM (inactive)
GI50 (HT-29): > 95.3 µM (inactive)
GI50 (Hs-578T): > 62.2 µM (inactive)
GI50 (IGROV-1): > 64.1 µM (inactive)
GI50 (K562): > 100 µM (inactive)
GI50 (KM-20L2): > 100 µM (inactive)
GI50 (KM12): > 84.5 µM (inactive)
GI50 (LOX IMVI): 51.6 µM (inactive)
GI50 (LXFL 529): > 100 µM (inactive)
GI50 (M14): > 91.6 µM (inactive)
GI50 (M19-MEL): > 100 µM (inactive)
GI50 (MCF7): 26.6 µM (inactive)
GI50 (MDA-MB-231): > 89.5 µM (inactive)
GI50 (MDA-MB-435): > 84.5 µM (inactive)
GI50 (MDA-N): > 86.7 µM (inactive)
GI50 (MOLT-4): 11.7 µM (inactive)
GI50 (Malme-3M): > 45 µM (inactive)
GI50 (NCI-H23): > 76.4 µM (inactive)
GI50 (NCI-H460): 19.1 µM (inactive)
GI50 (NCI-H522): 29.5 µM (inactive)
GI50 (NCI/ADR-RES): > 95.3 µM (inactive)
GI50 (OVCAR-3): > 84.5 µM (inactive)
GI50 (OVCAR-4): > 92.5 µM (inactive)
GI50 (OVCAR-8): > 80.5 µM (inactive)
GI50 (PC-3): > 100 µM (inactive)
GI50 (RPMI-8226): > 73.6 µM (inactive)
GI50 (RXF 393): > 81.8 µM (inactive)
GI50 (SF-268): > 100 µM (inactive)
GI50 (SF-295): > 89.9 µM (inactive)
GI50 (SF-539): > 65.2 µM (inactive)
GI50 (SK-MEL-28): > 76.7 µM (inactive)
GI50 (SK-MEL-2): > 88.5 µM (inactive)
GI50 (SK-MEL-5): 72.3 µM (inactive)
GI50 (SK-OV-3): > 100 µM (inactive)
GI50 (SN12C): > 100 µM (inactive)
GI50 (SNB-19): > 62.1 µM (inactive)
GI50 (SNB-75): 84.5 µM (inactive)
GI50 (SNB-78): > 100 µM (inactive)
GI50 (SR): 30.1 µM (inactive)
GI50 (SW-620): > 91.6 µM (inactive)
GI50 (T47D): 84.1 µM (inactive)
GI50 (TK-10): > 95.9 µM (inactive)
GI50 (U-251): > 63.7 µM (inactive)
GI50 (UACC-257): > 86.3 µM (inactive)
GI50 (UACC-62): 65.3 µM (inactive)
GI50 (UO-31): 72.1 µM (inactive)
GI50 (XF498): > 100 µM (inactive)
